ChEMBL document CHEMBL5052848, “Atf6 modulators and uses thereof” (2021)

Columns and labels:
Format in all cases: cell-based
U2OS [1] = test: Modulation of ATF6 activity in human U2OS cells at 1 uM in presence of ER stress inducer thapsigargin (Tg) measured by TRE-luciferase reporter assay relative to control
U2OS [2] = test: Modulation of ATF6 activity in human U2OS cells at 10 uM in presence of ER stress inducer thapsigargin (Tg) measured by TRE-luciferase reporter assay relative to control
U2OS [3] = test: Modulation of ATF6 activity in human U2OS cells at 1 uM measured by TRE-luciferase reporter assay relative to control
U2OS [4] = test: Modulation of ATF6 activity in human U2OS cells at 10 uM measured by TRE-luciferase reporter assay relative to control

Row | SMILES | Activity (U2OS [1]; filed as activator) | Activity (U2OS [2]; filed as activator) | Activity (U2OS [3]) | Activity (U2OS [4]) | Activity (U2OS [1]) | Activity (U2OS [2])
1 | CC(c1c(Cl)cccc1Cl)n1cc(NC(=O)c2cc(-c3ccco3)on2)cn1 (stereo unspecified) | > 150% | > 150% | 0% | 0% | – | –
2 | CC(c1c(Cl)cccc1Cl)n1cc(NC(=O)c2cc(-c3cccs3)on2)cn1 (stereo unspecified) | – | 100% | 0% | 0% | 75% | –
3 | CC(c1ccc(F)cc1Cl)n1cc(NC(=O)c2cc(-c3ccco3)on2)cn1 (stereo unspecified) | 100% | – | – | – | – | 75%
4 | Cc1c(NC(=O)c2cc(-c3ccco3)on2)cnn1C(C)c1c(F)cccc1Cl (stereo unspecified) | – | 100% | 0% | 0% | 75% | –
5 | O=C(Nc1cnn(C2CCCc3ccccc32)c1)c1cc(-c2ccco2)on1 (stereo unspecified) | 100% | 125% | – | – | – | –
6 | O=C(Nc1cnn(C2CCc3cc(C(F)(F)F)ccc32)c1)c1cc(-c2cnccn2)on1 (stereo unspecified) | – | – | – | – | 75% | 75%
7 | O=C(Nc1cnn(Cc2ccc(C(F)(F)F)cc2)c1)c1cc(-c2ccco2)on1 | 100% | – | – | – | – | 75%
8 | O=C(Nc1cnn(Cc2ccc(C(F)(F)F)cc2C(F)(F)F)c1)c1cc(-c2ccco2)on1 | – | – | – | – | < 50% | < 50%
9 | O=C(Nc1cnn(Cc2ccccc2)c1)c1cc(-c2ccco2)on1 | 100% | 125% | – | – | – | –
10 | CC(c1c(Cl)cccc1Cl)n1cc(NC(=O)c2cc(-c3ccco3)on2)cn1 (single isomer, unassigned) | 125% | 100% | – | – | – | –
11 | O=C(Nc1cnn(C2CCc3cc(Cl)ccc32)c1)c1cc(-c2ccco2)on1 (single isomer, unassigned; enantiomer A) | – | – | – | – | 75% | < 50%
12 | O=C(Nc1cnn(C2CCc3cc(Cl)ccc32)c1)c1cc(-c2ccco2)on1 (single isomer, unassigned; enantiomer B) | – | – | – | – | 75% | 75%
13 | CC(c1c(F)cccc1Cl)n1cc(NC(=O)c2cc(-c3ccco3)on2)cn1 (stereo in doubt; 1-4) | > 150% | > 150% | – | – | – | –
14 | CC(c1ccc(F)cc1F)n1cc(NC(=O)c2cc(-c3ccco3)on2)cn1 (stereo in doubt; 1-5) | 100% | > 150% | – | – | – | –
15 | CC(c1ccc(C(F)(F)F)cc1C(F)(F)F)n1cc(NC(=O)c2cc(-c3cnccn3)no2)cn1 (stereo in doubt; 1-11) | – | – | – | – | 50% | < 50%
16 | CC(c1c(F)cccc1Cl)n1cc(NC(=O)c2cc(-c3ccco3)on2)cn1 (stereo in doubt; 1-14) | > 150% | > 150% | 0% | 0% | – | –
17 | CC(c1c(F)cccc1Cl)n1cc(NC(=O)c2cc(-c3ccco3)on2)cn1 (stereo in doubt; 1-15) | 100% | 100% | 0% | 0% | – | –
18 | CC(c1ccc(F)cc1F)n1cc(NC(=O)c2cc(-c3ccco3)on2)cn1 (stereo in doubt; 1-16) | 100% | 125% | 0% | 0% | – | –
19 | CC(c1ccc(F)cc1F)n1cc(NC(=O)c2cc(-c3ccco3)on2)cn1 (stereo in doubt; 1-17) | 100% | 100% | 0% | 0% | – | –
20 | CC(c1ccc(C(F)(F)F)cc1C(F)(F)F)n1cc(NC(=O)c2cc(-c3cnccn3)no2)cn1 (stereo in doubt; 1-25) | – | – | – | – | 75% | 75%
21 | CC(c1ccc(C(F)(F)F)cc1C(F)(F)F)n1cc(NC(=O)c2cc(-c3cnccn3)no2)cn1 (stereo in doubt; 1-26) | – | – | – | – | < 50% | < 50%
